IC50 data for nine molecules are collected here from US5157041A, “Amino acid derivatives” (Hoffmann-La Roche Inc., priority 1988, dated 1992).

Each structure is given as a SMILES string.

The first assay addresses T1, HIV protease (Human immunodeficiency virus type 1 group M subtype B, UniProt P04585).
T1 construct: HIV protease was expressed in E. coli; made in house; host or cells: E. coli
As to the kind of experiment: biochemical. Particulars: partially purified HIV protease expressed in E. coli; substrate succinyl-Ser-Leu-Asn-Tyr-Pro-Ile isobutylamide; citrate buffer pH 5.5; 37° C.; read-out: I50 (concentration of test compound required to give 50% inhibition). As for the experimental part:
HIV protease was expressed in E. coli and partially purified from soluble extracts of the bacterium by ammonium sulphate fractionation (0-30%). Protease activity was assayed using the protected hexapeptide succinyl-Ser-Leu-Asn-Tyr-Pro-Ile isobutylamide as the substrate. Cleavage of the substrate was quantified by measuring the production of H-Pro-Ile isobutylamide by the spectrophotometric assay of N-terminal proline.
1.25 mM of substrate were dissolved in 125 mM of citrate buffer (pH 5.5) containing 0.125 mg/ml of Tween 20. 10 μl of a solution of various concentrations of the test compound (dissolved in methanol or […]) and 10 μl of protease were added to 80 μl of the above buffered substrate. Digestion was carried out at 37° C. for a fixed period of time and was terminated by the addition of 1 ml of colour reagent [30 μg/ml of isatin and 1.5 mg/ml of 2-(4-chlorobenzoyl)benzoicacid in 10% acetone in ethanol (vol./vol.)]. The solution was heated in a water bath and then the pigmented residues were re-dissolved in 1 ml of 1% pyrogallol in 33% water in acetone (wt./vol./vol.). The optical density of the solution was measured spectrophotometrically at 599 nm.
Turning to `CC(C)(C)NC(=O)C1Cc2ccccc2CN1C[C@@H](O)[C@H](Cc1ccccc1)NC(=O)[C@H](CC(N)=O)NC(=O)OCc1ccccc1` (mixture of isomers) [Compound I, 2-[3(S)-[[N-(benzyloxycarbonyl)-L-asparaginyl]amino]-2(R)-hydroxy-4-phenylbutyl]-N-tert.butyl-1,2,3,4-tetrahydro-3(R,S)-isoquinolinecarboxamide], the IC50 amounted to 85 nM.
As to `CC[C@H](C)[C@H](NC(=O)[C@@H]1CCCN1CC(O)[C@H](Cc1ccccc1)NC(=O)[C@H](CC(N)=O)NC(=O)[C@H](CC(C)C)NC(=O)OCc1ccccc1)C(=O)NCC(C)C` (mixture of isomers) [Compound E, N^2-[N-[3(S)-[[N-[N-(benzyloxycarbonyl)-L-leucyl]-L-asparaginyl]amino]-2(R and S)-hydroxy-4-phenylbutyl]-L-prolyl]-N^1-isobutyl-L-isoleucinamide], the IC50 was determined as 750 nM.
On the same count and under the same terms, as for `CC[C@H](C)[C@H](NC(=O)[C@@H]1CCCN1CC(O)[C@H](Cc1ccccc1)NC(=O)[C@H](CC(N)=O)NC(=O)OCc1ccccc1)C(=O)NCC(C)C` (single isomer, unassigned) [Compound D], the figure is 130 nM.
Turning to `CC(C)CCNC(=O)[C@@H]1CCCN1CC(O)[C@H](Cc1ccccc1)NC(=O)[C@H](CC(N)=O)NC(=O)OCc1ccccc1` (single isomer, unassigned) [Compound F], the IC50 is 750 nM.
On the same count and under the same terms, as for `CC(C)CNC(=O)[C@@H]1CCCN1CC(O)[C@H](Cc1ccccc1)NC(=O)[C@H](CC(N)=O)NC(=O)OCc1ccccc1` (single isomer, unassigned) [Compound G, N^2-[3(S)-[[N-(benzyloxycarbonyl)-L-asparaginyl]amino]-2(R or S)-hydroxy-4-phenylbutyl]-N^1-isobutyl-L-prolinamide], the figure is 80 nM.
Consider `CC(C)(C)OC(=O)[C@@H]1CCCN1CC(=O)[C@H](Cc1ccccc1)NC(=O)[C@H](CC(N)=O)NC(=O)OCc1ccccc1` [Compound A, N-[N-[[N-(benzyloxycarbonyl)-L-asparaginyl]-L-phenylalanyl]methyl]-L-proline tert.butyl ester], for which the IC50 turned out to be 870 nM.
As for `CC(C)(C)OC(=O)[C@@H]1CCCN1C[C@@H](O)[C@H](Cc1ccccc1)NC(=O)[C@H](CC(N)=O)NC(=O)c1ccc2ccccc2c1` [Compound H, N-[2(R)-hydroxy-3(S)-[[N-(2-naphthoyl)-L-asparaginyl]amino]-4-phenylbutyl]-L-proline tert.butyl ester], the IC50 amounted to 10 nM.

The same assay, now with this note: read-out: I50 (concentration of test compound required to give 50% inhibition).
For `CC(C)(C)OC(=O)[C@@H]1CCCN1C[C@@H](O)[C@H](Cc1ccccc1)NC(=O)[C@H](CC(N)=O)NC(=O)OCc1ccccc1` [Compound B, N-[3(S)-[[N-(benzyloxycarbonyl)-L-asparaginyl]amino]-2(R)-hydroxy-4-phenylbutyl]-L-proline tert.butyl ester], the IC50 is 150 nM.
With `CC(C)(C)OC(=O)[C@@H]1CCCN1C[C@H](O)[C@H](Cc1ccccc1)NC(=O)[C@H](CC(N)=O)NC(=O)OCc1ccccc1` [Compound C, N-[3(S)-[[N-(benzyloxycarbonyl)-L-asparaginyl]amino]-2(S)-hydroxy-4-phenylbutyl]-L-proline tert.butyl ester], the IC50 came to 300 nM.
